In patent publication US20050123917A1, “Method for characterising and/or identifying active mechanisms of antimicrobial test substances” (priority 2001, published 2005):
Converted amounts (≈) assume the structure as drawn. Starred links: 1 amine or outer side, 2 acyl side, 3 side chain; linkers in the order of their positions; H or OH if unused. Positions of bridges follow the written chain, without caps; N, C: chain ends. Non-standard residues stand in square brackets, D forms with d. Residues, ends and D or L forms follow the SMILES beside them. Chains are numbered I, II in the order given. Actinocin(9to1) = Cc1c2oc3c(C)ccc(C(=O)[*:1])c3nc-2c(C(=O)[*:2])c(N)c1=O; NMeV = CN[C@H](C(=O)O)C(C)C; Orn = NCCC[C@H](N)C(=O)O; Sar = CNCC(=O)O

test system: Bacillus subtilis 168; assay: Determination of the minimum inhibiting agent concentration (MIC); assay type: cell-based; conditions: B. subtilis 168, Belitsky Minimal Medium, 18-24 hrs at 37° C.
Procedure: The test substance may be an inhibiting agent. The concentration of inhibiting agent with which the bacterial culture is treated should preferably be in the range of 0.1× to 20× the minimum inhibiting agent concentration (MIC) for the test substance. The minimum inhibiting agent concentration is the minimum concentration of an antibiotic which inhibits the growth of a test germ over a period of 18-24 hours. The inhibiting agent concentration can therefore be determined according to standard microbiological procedures (see for example The-National Committee for Clinical Laboratory Standards. Methods for dilution antimicrobial susceptibility tests for bacteria that grow aerobically; approved standard-fifth edition. NCCLS document M7-A5 [ISBN 1-56238-394-9]. NCCLS, 940 West Valley Road, Suite 1400, Wayne, Pa. 19087-1898 USA, 2000.). The test spectra are recorded from a microbial culture that has been treated with the inhibiting agent in one, or preferably in several concentrations.
For the production of an overnight culture, 22 ml of Belitsky Minimal Medium (Stuhlke et al. (1993) Temporal activation of beta-glucauase synthesis in Bacillus subtilis is mediated by the GTP pool. J. Gen. Microbiol. 1993 Sep; 139 (pt 9):2041-5) was injected with an aliquot of the test germ Bacillus subtilis 168 from a permanent culture stored at −80° C., and incubated at 37° C. and 200 rpm.

Compound	MIC
O=c1[nH]c(=O)n([C@H]2C[C@H](O)[C@@H](CO)O2)cc1F [5-fluor-2-desoxyuridine]	0.25 µg/mL (≈ 1.02 µM)
N[C@@H]1CONC1=O [D-cycloserine]	64 µg/mL (≈ 627 µM)
Cc1c2oc3c(C)ccc(C(=O)N[C@@H]4C(=O)N[C@H](C(C)C)C(=O)N5CCC[C@H]5C(=O)N(C)CC(=O)N(C)[C@@H](C(C)C)C(=O)O[C@@H]4C)c3nc-2c(C(=O)N[C@@H]2C(=O)N[C@H](C(C)C)C(=O)N3CCC[C@H]3C(=O)N(C)CC(=O)N(C)[C@@H](C(C)C)C(=O)O[C@@H]2C)c(N)c1=O [actinomycin D] (I: T[dV]P[Sar][NMeV] / II: T[dV]P[Sar][NMeV]; ester I:1-I:C, II:1-II:C; linker I:N-II:N via Actinocin(9to1))	1 µg/mL (≈ 0.797 µM)
CC[n+]1c(-c2ccccc2)c2cc(N)ccc2c2ccc(N)cc21.[Br-] [ethidiumbromid]	4 µg/mL
CC(C)C[C@@H]1NC(=O)[C@H](CCCN)NC(=O)[C@H](C(C)C)NC(=O)[C@@H]2CCCN2C(=O)[C@@H](Cc2ccccc2)NC(=O)[C@H](CC(C)C)NC(=O)[C@H](CCCN)NC(=O)[C@H](C(C)C)NC(=O)[C@@H]2CCCN2C(=O)[C@@H](Cc2ccccc2)NC1=O [gramicidin S] (cyclo(V[Orn]L[dF]PV[Orn]L[dF]P))	1 µg/mL (≈ 0.876 µM)
CO[C@@]12[C@H](COC(N)=O)C3=C(C(=O)C(C)=C(N)C3=O)N1C[C@@H]1N[C@@H]12 [mitomycin C]	0.25 µg/mL (≈ 0.748 µM)
CC1(C)S[C@@H]2[C@H](NC(=O)Cc3ccccc3)C(=O)N2[C@H]1C(=O)O [penicillin G]	4 µg/mL (≈ 12 µM)
CN(C)[C@@H]1C(=O)C(C(N)=O)=C(O)[C@@]2(O)C(=O)C3=C(O)c4c(O)cccc4[C@@](C)(O)[C@H]3C[C@@H]12 [tetracyclin]	16 µg/mL (≈ 36 µM)
enniatin	16 µg/mL
gentamicin	0.125 µg/mL
gramicidin A	4 µg/mL
mersacidin	16 µg/mL
neomycin	0.125 µg/mL
polymyxin B-sulfate	16 µg/mL
ramoplanin	1 µg/mL
ristocetin	0.5 µg/mL
teichoplanin	0.125 µg/mL

same assay, conditions: Bacillus subtilis, 168

Compound	MIC
CN[C@H](CC(C)C)C(=O)N[C@H]1C(=O)N[C@@H](CC(N)=O)C(=O)N[C@H]2C(=O)N[C@H]3C(=O)N[C@H](C(=O)N[C@H](C(=O)O)c4cc(O)cc(O)c4-c4cc3ccc4O)[C@H](O)c3ccc(c(Cl)c3)Oc3cc2cc(c3O[C@@H]2O[C@H](CO)[C@@H](O)[C@H](O)[C@H]2O[C@H]2C[C@](C)(N)[C@H](O)[C@H](C)O2)Oc2ccc(cc2Cl)[C@H]1O [vancomycin]	0.25 µg/mL (≈ 0.173 µM)

same assay, conditions: Bacillus subtilis; B. subtilis 168, Belitsky Minimal Medium, 18-24 hrs at 37° C.; read-out: MIC

Compound	MIC
O=c1[nH]cc(F)c(=O)[nH]1 [5-fluoro-uracile]	0.25 µg/mL (≈ 1.92 µM)
[N-]=[N+]=CC(=O)OC[C@H](N)C(=O)O [azaserine]	4 µg/mL (≈ 23.1 µM)
CC[C@H]1OC(=O)[C@H](C)[C@@H](O[C@H]2C[C@@](C)(OC)[C@@H](O)[C@H](C)O2)[C@H](C)[C@@H](O[C@@H]2O[C@H](C)C[C@H](N(C)C)[C@H]2O)[C@](C)(O)C[C@@H](C)CN(C)[C@H](C)[C@@H](O)[C@]1(C)O [azithromycin]	1 µg/mL (≈ 1.34 µM)
CO[C@@]1(NC(=O)Cc2cccs2)C(=O)N2C(C(=O)O)=C(COC(N)=O)CS[C@@H]21 [cefoxitin]	2 µg/mL (≈ 4.68 µM)
C/C=C/C/C=C/CCC(=O)[C@H]1O[C@H]1C(N)=O [cerulenin]	16 µg/mL (≈ 71.7 µM)
O=C(N[C@H](CO)[C@H](O)c1ccc([N+](=O)[O-])cc1)C(Cl)Cl [chloramphenicol]	4 µg/mL (≈ 12.4 µM)
CC[C@H]1OC(=O)[C@H](C)[C@@H](O[C@H]2C[C@@](C)(OC)[C@@H](O)[C@H](C)O2)[C@H](C)[C@@H](O[C@@H]2O[C@H](C)C[C@H](N(C)C)[C@H]2O)[C@](C)(OC)C[C@@H](C)C(=O)[C@H](C)[C@@H](O)[C@]1(C)O [clarithromycin]	0.0625 µg/mL (≈ 0.0836 µM)
CCC[C@@H]1C[C@@H](C(=O)N[C@@H]([C@H]2O[C@H](SC)[C@H](O)[C@@H](O)[C@H]2O)[C@H](C)Cl)N(C)C1 [clindamycin]	2 µg/mL (≈ 4.71 µM)
COc1cccc2c1C(=O)c1c(O)c3c(c(O)c1C2=O)C[C@@](O)(C(=O)CO)C[C@@H]3O[C@H]1C[C@H](N)[C@H](O)[C@H](C)O1 [doxorubicin]	8 µg/mL (≈ 14.7 µM)
CC[C@H]1OC(=O)[C@H](C)[C@@H](O[C@H]2C[C@@](C)(OC)[C@@H](O)[C@H](C)O2)[C@H](C)[C@@H](O[C@@H]2O[C@H](C)C[C@H](N(C)C)[C@H]2O)[C@](C)(O)C[C@@H](C)C(=O)[C@H](C)[C@@H](O)[C@]1(C)O [erythromycin]	0.5 µg/mL (≈ 0.681 µM)
CC(=O)O[C@H]1C[C@@]2(C)[C@@H](C[C@@H](O)[C@H]3[C@@]4(C)CC[C@@H](O)[C@@H](C)[C@@H]4CC[C@@]32C)/C1=C(\CCC=C(C)C)C(=O)O [fusidic acid]	0.5 µg/mL (≈ 0.968 µM)
NC[C@H]1O[C@H](O[C@H]2[C@H](O)[C@@H](O[C@H]3O[C@H](CO)[C@@H](O)[C@H](N)[C@H]3O)[C@H](N)C[C@@H]2N)[C@H](O)[C@@H](O)[C@@H]1O [kanamycin]	0.5 µg/mL (≈ 1.03 µM)
CC[C@@H](C(=O)[C@@H](C)[C@@H](O)[C@H](C)CCc1ccc(C)c(O)c1C(=O)O)[C@H]1O[C@](CC)([C@H]2CC[C@](O)(CC)[C@H](C)O2)C[C@@H]1C [lasalocid]	1 µg/mL (≈ 1.69 µM)
COc1cccc(OC)c1C(=O)N[C@@H]1C(=O)N2[C@@H]1SC(C)(C)[C@@H]2C(=O)O [methicillin]	0.125 µg/mL (≈ 0.329 µM)
CC[C@@]1([C@@H]2O[C@@H]([C@H]3O[C@@](O)(CO)[C@H](C)C[C@@H]3C)C[C@@H]2C)CC[C@H]([C@]2(C)CC[C@]3(C[C@H](O)[C@@H](C)[C@@H]([C@@H](C)[C@@H](OC)[C@H](C)C(=O)O)O3)O2)O1 [monensin]	4 µg/mL (≈ 5.96 µM)
CO[C@@]1(NC(=O)C(C(=O)O)c2ccc(O)cc2)C(=O)N2C(C(=O)O)=C(CSc3nnnn3C)CO[C@@H]21 (some centres unmarked) [moxalactam]	4 µg/mL (≈ 7.69 µM)
C/C(=C\C(=O)OCCCCCCCCC(=O)O)C[C@@H]1OC[C@H](C[C@@H]2O[C@H]2[C@@H](C)[C@H](C)O)[C@@H](O)[C@H]1O [mupirocin]	0.0625 µg/mL (≈ 0.125 µM)
CCn1cc(C(=O)O)c(=O)c2ccc(C)nc21 [nalidixic acid]	32 µg/mL (≈ 138 µM)
CO[C@@H]1C[C@@H](C[C@H]2CC[C@H](C)[C@H]([C@@H](C)C(=O)O)O2)O[C@]2(O[C@](C)([C@H]3CC[C@@](C)([C@@H]4O[C@@H]([C@H]5O[C@@](O)(CO)[C@H](C)C[C@@H]5C)C[C@@H]4C)O3)C[C@H]2C)[C@@H]1C [nigericin]	1 µg/mL (≈ 1.38 µM)
O=C1CN(/N=C/c2ccc([N+](=O)[O-])o2)C(=O)N1 [nitrofurantoin]	16 µg/mL (≈ 67.2 µM)
CO[C@@H]1[C@@H](OC(N)=O)[C@@H](O)[C@H](Oc2ccc3c(O)c(NC(=O)c4ccc(O)c(CC=C(C)C)c4)c(=O)oc3c2C)OC1(C)C [novobiocin]	2 µg/mL (≈ 3.26 µM)
Cc1onc(-c2ccccc2)c1C(=O)N[C@@H]1C(=O)N2[C@@H]1SC(C)(C)[C@@H]2C(=O)O [oxacillin]	0.5 µg/mL (≈ 1.25 µM)
Nc1ccc2cc3ccc(N)cc3nc2c1 [proflavin]	8 µg/mL (≈ 38.2 µM)
COc1ccc(C[C@H](N)C(=O)N[C@H]2[C@@H](O)[C@H](n3cnc4c(N(C)C)ncnc43)O[C@@H]2CO)cc1 [puromycin]	8 µg/mL (≈ 17 µM)
CO[C@H]1/C=C/O[C@@]2(C)Oc3c(C)c(O)c4c(O)c(c(/C=N/N5CCN(C)CC5)c(O)c4c3C2=O)NC(=O)/C(C)=C\C=C\[C@H](C)[C@H](O)[C@@H](C)[C@@H](O)[C@@H](C)[C@H](OC(C)=O)[C@@H]1C [rifampicin]	0.25 µg/mL (≈ 0.304 µM)
CN[C@@H]1[C@H](O)[C@H](NC)[C@H]2O[C@@]3(O)C(=O)C[C@@H](C)O[C@H]3O[C@@H]2[C@H]1O [spectinomycin]	16 µg/mL (≈ 48.1 µM)
[H]/N=C(/N)N[C@H]1[C@H](O)[C@@H](O)[C@H](O[C@@H]2O[C@@H](C)[C@](O)(C=O)[C@H]2O[C@@H]2O[C@@H](CO)[C@H](O)[C@@H](O)[C@@H]2NC)[C@@H](N/C(N)=N\[H])[C@@H]1O [streptomycin]	128 µg/mL (≈ 220 µM)
NC[C@H]1O[C@H](O[C@H]2[C@H](O)[C@@H](O[C@H]3O[C@H](CO)[C@@H](O)[C@H](N)[C@H]3O)[C@H](N)C[C@@H]2N)[C@H](N)C[C@@H]1O [tobramycin]	0.0625 µg/mL (≈ 0.134 µM)
COc1cc(Cc2cnc(N)nc2N)cc(OC)c1OC [trimethoprim]	0.5 µg/mL (≈ 1.72 µM)
